The test system of experiment [1] is Leukotriene A-4 hydrolase (Sus scrofa). Kind of experiment: Tested for 50% inhibition of LTA4 hydrolase at 2*10e-5M concentration in porcine leukocyte homogenates.
The test system of experiment [2] is Leukotriene B4 receptor 1 (Cavia porcellus). In words: Percent inhibition of [3H]-LTB4 binding to guinea pig spleen Leukotriene B4 receptor at the concentration of 10e-5 M.
The nature of experiment [3]: compound was tested for 50% inhibition of LTA4 hydrolase at 2*10e-5M concentration in porcine leukocyte homogenates. In kind it is tissue-based, Sus scrofa.
The test system of experiment [4] is Leukotriene A-4 hydrolase (Sus scrofa). In words: Tested for Percentage inhibition of LTA4 hydrolase at 2*10e-5M concentration in porcine leukocyte homogenates.

Among the data in ChEMBL document CHEMBL1126193, “Omega-[(omega-arylalkyl)thienyl]alkanoic acids: from specific LTA4 hydrolase inhibitors to LTB4 receptor antagonists” (J Med Chem, 1992) are inhibition and IC50 values, retold here.

The term inhibition denotes the percentage by which the read-out fell short of the control. Compound `O=C(O)CCCCCCc1csc(CCc2ccccc2)c1` had an inhibition in experiment [1] of 49%. For `O=C(O)CCCCCCc1cc(-c2ccccc2)cs1`, the inhibition worked out at 25% in experiment [1] and 0% in experiment [2]. Taken in the same sequence, the figures for `O=C(O)CCCCCCc1ccsc1CCc1ccccc1` were 0% and 38%. As a reminder, the IC50 is the point on the concentration scale where inhibition reaches its midpoint. The compound `O=C(O)CCCCCCc1ccc(CCCc2ccccc2)s1` showed an IC50 in experiment [3] of 2.9 µM. This compound showed an inhibition in experiment [1] of 84%. `O=C(O)CCCCCCc1sccc1CCCc1ccccc1` returned an inhibition in experiment [1] of 0%. In turn, `COc1ccc(CCCc2cc(CCCCCCC(=O)O)cs2)cc1` registered an inhibition in experiment [4] of 68%.

For `O=C(O)CCCCCCc1cc(CCCc2ccccc2)cs1`, the inhibition in experiment [1] stood at 42%; in experiment [2], 38%. The corresponding values for `O=C(O)CCCCCCc1sccc1CCCCCc1ccccc1` are 9% and 39%. In the case of `O=C(O)CCCCCc1cc(CCCc2ccccc2)cs1`, the results for the inhibition in experiment [1] and in experiment [2] were 32% and 36%, respectively.

In turn, `O=C(O)CCCCCCc1csc(CCCc2ccc(Cl)cc2)c1` came in with an inhibition in experiment [4] of 73%. For the compound `O=C(O)CCCCCCc1sccc1Cc1ccccc1`, the inhibition worked out at 0% in experiment [1] and 15% in experiment [2]. `O=C(O)CCCCCCc1csc(Cc2ccccc2)c1`: the inhibition in experiment [1] was found to be 68%.

Take `O=C(O)CCCCc1sccc1CCCc1ccccc1`: in experiment [1], the inhibition is 0%.

In the case of `O=C(O)CCCCCCc1ccsc1CCCc1ccc(Cl)cc1`, the inhibition in experiment [4] worked out at 24%. Regarding `O=C(O)CCCCCCc1cc(CCCCCc2ccccc2)cs1`, the figures for the inhibition in experiment [1] and in experiment [2] were 49% and 31%, respectively.

As for `O=C(O)CCCCCC(=O)c1sccc1CCCc1ccccc1`, the inhibition in experiment [2] came out at 59%. In experiment [4], `O=C(O)CCCCCCc1csc(CCCc2ccc(O)cc2)c1` showed an inhibition of 100%. The compound `O=C(O)CCCCCCc1cc(Cc2ccccc2)cs1` had an IC50 in experiment [3] of 9.6 µM. Besides, the inhibition is 70% in experiment [1] and 33% in experiment [2].

In turn, `O=C(O)CCCCCCc1sc(-c2ccccc2)cc1CCCc1ccccc1` had an inhibition in experiment [4] of 0%.

In the case of `O=C(O)CCCCc1cc(CCCc2ccccc2)cs1`, the inhibition came to 0% in experiment [1] and 35% in experiment [2].

In experiment [2], `O=C(O)CCCCCCc1ccsc1C(=O)CCc1ccccc1` registered an inhibition of 17%.

In the case of `O=C(O)CCCCCCc1ccsc1CCCc1ccccc1`, the inhibition in experiment [1] turned out to be 0%.

In experiment [3], `O=C(O)CCCCCCc1csc(CCCc2ccccc2)c1` displayed an IC50 of 1.5 µM. Further, the inhibition in experiment [1] was found to be 100%; in experiment [2], 10%. For `Cc1cc(C(=O)CCCCCC(=O)O)c(CCCc2ccccc2)s1`, in experiment [2], the inhibition is 51%.

`Cc1cc(CCCCCCC(=O)O)c(CCCc2ccccc2)s1` returned an inhibition in experiment [4] of 0%.
